Data from patent US12617758B2, “Quinazoline derivative having FLT3 inhibitory activity, and use thereof” (INDUSTRY-UNIVERSITY COOPERATION FOUNDATION HANYANG …, priority 2020, dated 2026).
pIC50: −log10 of the molar value. Where two headings read alike, the source gives them in different places.

How the values were obtained:
Type in all cases: biochemical
[1] = target: BTK (Homo sapiens, UniProt Q06187); experiment: Kinase panel screening; details: single dose of 10 μM, read-out: % inhibition rate
[2] = target: FLT1/VEGFR1 (Homo sapiens, UniProt P17948); experiment: Kinase panel screening; details: single dose of 10 μM, read-out: % inhibition rate
Sequence of FLT1/VEGFR1 (P17948 27-1338): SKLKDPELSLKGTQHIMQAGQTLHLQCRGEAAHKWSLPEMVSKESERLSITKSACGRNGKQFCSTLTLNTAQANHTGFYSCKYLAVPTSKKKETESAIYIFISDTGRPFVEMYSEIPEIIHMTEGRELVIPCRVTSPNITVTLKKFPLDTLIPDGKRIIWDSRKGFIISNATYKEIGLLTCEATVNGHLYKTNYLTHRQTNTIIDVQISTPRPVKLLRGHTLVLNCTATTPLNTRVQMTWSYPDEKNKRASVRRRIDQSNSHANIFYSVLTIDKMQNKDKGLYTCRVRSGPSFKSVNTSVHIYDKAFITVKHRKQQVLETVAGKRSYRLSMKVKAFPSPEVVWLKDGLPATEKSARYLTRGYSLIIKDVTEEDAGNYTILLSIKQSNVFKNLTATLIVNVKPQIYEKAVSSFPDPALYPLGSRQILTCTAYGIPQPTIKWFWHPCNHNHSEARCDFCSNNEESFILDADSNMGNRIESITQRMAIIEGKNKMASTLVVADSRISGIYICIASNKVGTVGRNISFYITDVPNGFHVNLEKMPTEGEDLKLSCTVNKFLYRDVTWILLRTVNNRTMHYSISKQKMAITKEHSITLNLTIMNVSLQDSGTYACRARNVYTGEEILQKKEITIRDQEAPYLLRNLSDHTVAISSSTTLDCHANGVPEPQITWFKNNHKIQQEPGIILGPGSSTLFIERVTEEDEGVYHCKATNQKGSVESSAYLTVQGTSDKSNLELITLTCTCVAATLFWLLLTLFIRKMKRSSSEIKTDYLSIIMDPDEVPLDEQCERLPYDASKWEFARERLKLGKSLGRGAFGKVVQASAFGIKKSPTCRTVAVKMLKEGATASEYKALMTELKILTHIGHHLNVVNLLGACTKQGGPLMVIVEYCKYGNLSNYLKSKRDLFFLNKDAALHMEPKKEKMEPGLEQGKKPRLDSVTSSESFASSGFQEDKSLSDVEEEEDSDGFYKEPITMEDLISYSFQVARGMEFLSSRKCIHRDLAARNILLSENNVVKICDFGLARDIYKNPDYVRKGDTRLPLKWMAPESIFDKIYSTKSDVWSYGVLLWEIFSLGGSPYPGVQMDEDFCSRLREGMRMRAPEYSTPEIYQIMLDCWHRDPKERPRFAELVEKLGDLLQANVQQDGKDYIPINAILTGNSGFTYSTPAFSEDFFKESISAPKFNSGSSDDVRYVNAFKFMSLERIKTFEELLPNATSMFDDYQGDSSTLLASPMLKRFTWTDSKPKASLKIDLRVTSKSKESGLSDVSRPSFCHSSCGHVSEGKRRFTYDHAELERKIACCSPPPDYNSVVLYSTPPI

[3] = target: JAK3 (Homo sapiens, UniProt P52333); experiment: Kinase panel screening; details: single dose of 10 μM, read-out: % inhibition rate
Sequence of JAK3 (P52333 whole entry, species assumed): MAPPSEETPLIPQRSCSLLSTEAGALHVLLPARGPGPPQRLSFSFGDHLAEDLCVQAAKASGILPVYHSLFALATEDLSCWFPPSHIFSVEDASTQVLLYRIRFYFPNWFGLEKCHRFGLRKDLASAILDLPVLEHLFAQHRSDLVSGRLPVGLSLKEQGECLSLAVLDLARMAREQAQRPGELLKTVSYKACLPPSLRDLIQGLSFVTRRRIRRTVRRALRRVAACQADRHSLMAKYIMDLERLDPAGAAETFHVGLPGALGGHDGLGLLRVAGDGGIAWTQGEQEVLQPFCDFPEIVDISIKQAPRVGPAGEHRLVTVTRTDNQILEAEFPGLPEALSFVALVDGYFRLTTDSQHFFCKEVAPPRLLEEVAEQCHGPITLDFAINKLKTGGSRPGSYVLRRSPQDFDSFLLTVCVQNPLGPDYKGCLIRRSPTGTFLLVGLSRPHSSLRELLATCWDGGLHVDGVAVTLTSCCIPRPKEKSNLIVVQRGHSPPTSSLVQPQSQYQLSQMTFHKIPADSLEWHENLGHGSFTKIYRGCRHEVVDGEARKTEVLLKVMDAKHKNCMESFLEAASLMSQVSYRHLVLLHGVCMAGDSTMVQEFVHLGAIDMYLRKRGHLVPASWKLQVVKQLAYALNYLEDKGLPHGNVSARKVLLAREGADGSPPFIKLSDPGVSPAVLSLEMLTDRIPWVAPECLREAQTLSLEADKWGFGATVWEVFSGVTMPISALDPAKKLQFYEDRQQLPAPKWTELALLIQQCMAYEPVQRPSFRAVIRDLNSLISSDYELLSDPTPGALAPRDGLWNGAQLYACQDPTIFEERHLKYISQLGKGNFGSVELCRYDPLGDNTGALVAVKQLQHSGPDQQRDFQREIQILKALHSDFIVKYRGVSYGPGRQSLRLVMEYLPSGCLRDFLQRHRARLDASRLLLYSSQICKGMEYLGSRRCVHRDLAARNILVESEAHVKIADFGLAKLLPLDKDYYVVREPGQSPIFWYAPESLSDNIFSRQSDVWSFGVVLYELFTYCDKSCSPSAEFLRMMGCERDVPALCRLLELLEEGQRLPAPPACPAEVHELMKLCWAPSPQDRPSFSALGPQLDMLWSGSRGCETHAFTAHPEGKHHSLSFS

[4] = target: CDK4/cyclin D1 (Homo sapiens, UniProt P11802); experiment: Kinase panel screening; details: single dose of 10 μM, read-out: % inhibition rate
[5] = target: FYN (Homo sapiens, UniProt P06241); experiment: Kinase panel screening; details: single dose of 10 μM, read-out: % inhibition rate
Sequence of FYN (P06241 whole entry, species assumed): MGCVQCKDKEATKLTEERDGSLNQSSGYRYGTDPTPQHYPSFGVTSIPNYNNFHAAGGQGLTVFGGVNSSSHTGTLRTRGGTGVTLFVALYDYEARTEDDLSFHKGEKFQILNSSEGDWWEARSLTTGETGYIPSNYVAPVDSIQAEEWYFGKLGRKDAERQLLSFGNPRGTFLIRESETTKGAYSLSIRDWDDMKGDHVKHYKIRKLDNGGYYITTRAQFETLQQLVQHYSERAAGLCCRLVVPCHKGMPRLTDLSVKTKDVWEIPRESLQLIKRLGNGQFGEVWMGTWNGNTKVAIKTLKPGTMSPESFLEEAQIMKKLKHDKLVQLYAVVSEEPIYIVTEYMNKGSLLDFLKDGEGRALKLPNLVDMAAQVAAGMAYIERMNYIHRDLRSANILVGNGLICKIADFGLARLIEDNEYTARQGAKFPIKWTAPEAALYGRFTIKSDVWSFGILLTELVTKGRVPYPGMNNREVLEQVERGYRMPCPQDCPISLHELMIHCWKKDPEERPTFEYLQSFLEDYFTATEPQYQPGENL

[6] = target: MEK1 (Homo sapiens, UniProt Q02750); experiment: Kinase panel screening; details: single dose of 10 μM, read-out: % inhibition rate
[7] = target: AXL (Homo sapiens, UniProt P30530); experiment: Kinase panel screening; details: single dose of 10 μM, read-out: % inhibition rate
Sequence of AXL (P30530 26-894, species assumed): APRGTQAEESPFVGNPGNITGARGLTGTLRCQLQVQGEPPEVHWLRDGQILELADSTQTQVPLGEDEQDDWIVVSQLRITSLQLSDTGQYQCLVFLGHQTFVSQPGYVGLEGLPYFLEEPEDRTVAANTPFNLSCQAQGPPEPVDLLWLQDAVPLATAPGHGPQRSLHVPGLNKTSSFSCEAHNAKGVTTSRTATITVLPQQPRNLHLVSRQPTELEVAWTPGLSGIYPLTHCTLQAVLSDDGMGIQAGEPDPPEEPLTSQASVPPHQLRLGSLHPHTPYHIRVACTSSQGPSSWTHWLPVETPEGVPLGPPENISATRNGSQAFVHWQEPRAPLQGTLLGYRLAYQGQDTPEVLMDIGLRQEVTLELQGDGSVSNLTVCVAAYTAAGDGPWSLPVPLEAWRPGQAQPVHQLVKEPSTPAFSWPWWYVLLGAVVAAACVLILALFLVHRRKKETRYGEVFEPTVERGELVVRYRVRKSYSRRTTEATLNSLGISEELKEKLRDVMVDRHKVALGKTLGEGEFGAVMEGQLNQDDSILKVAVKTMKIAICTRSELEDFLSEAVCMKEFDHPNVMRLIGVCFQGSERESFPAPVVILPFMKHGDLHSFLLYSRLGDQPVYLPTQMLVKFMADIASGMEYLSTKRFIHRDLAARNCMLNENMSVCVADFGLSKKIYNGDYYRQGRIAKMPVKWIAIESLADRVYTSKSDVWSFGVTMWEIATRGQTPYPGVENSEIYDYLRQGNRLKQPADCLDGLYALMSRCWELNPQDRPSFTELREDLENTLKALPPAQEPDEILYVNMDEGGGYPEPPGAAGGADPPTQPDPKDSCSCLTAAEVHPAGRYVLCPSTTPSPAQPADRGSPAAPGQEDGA

[8] = target: GSK3b (Homo sapiens, UniProt P49841); experiment: Kinase panel screening; details: single dose of 10 μM, read-out: % inhibition rate
[9] = target: PKA (Homo sapiens, UniProt P17612); experiment: Kinase panel screening; details: single dose of 10 μM, read-out: % inhibition rate
[10] = target: T1, FLT3 (Homo sapiens, UniProt P36888); experiment: FLT3 enzyme activity (IC50)
T1 sequence (P36888 27-993): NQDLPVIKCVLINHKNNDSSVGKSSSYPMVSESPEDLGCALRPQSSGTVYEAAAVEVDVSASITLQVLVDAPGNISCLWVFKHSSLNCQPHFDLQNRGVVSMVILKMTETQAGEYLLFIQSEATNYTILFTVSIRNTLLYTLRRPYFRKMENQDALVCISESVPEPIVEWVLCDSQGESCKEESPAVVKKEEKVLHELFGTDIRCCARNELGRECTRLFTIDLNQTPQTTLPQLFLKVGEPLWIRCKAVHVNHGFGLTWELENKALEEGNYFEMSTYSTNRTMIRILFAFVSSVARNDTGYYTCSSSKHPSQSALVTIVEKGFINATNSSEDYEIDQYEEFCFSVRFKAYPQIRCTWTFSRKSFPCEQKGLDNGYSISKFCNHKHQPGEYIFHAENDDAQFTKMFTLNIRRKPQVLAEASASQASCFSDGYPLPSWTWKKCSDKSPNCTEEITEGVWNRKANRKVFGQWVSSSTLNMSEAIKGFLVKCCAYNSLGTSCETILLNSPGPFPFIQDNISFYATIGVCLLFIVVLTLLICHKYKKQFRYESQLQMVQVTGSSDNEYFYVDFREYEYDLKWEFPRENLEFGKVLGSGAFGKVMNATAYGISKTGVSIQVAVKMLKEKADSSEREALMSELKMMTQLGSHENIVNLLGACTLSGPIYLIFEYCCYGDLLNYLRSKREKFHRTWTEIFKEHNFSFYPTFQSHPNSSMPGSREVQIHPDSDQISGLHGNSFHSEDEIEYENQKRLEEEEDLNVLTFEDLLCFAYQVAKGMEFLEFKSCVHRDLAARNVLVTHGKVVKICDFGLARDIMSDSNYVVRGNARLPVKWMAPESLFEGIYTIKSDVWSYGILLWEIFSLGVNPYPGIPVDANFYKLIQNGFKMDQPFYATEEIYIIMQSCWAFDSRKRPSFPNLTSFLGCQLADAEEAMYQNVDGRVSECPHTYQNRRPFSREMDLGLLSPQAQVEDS
Excerpt: Experimental Example 1. Measurement of FLT3 and FLT Enzyme Activity
Changes in FLT3 and FLT enzyme activities by treatment with the quinazoline derivatives of the following Table 1 according to the present invention were confirmed by IC50.

[11] = target: FLT3-ITD (Homo sapiens, UniProt P36888); experiment: Kinase panel screening; details: single dose of 10 μM
[12] = target: c-Kit (Homo sapiens, UniProt P10721); experiment: Kinase panel screening; details: single dose of 10 μM
Sequence of c-Kit (P10721 26-976): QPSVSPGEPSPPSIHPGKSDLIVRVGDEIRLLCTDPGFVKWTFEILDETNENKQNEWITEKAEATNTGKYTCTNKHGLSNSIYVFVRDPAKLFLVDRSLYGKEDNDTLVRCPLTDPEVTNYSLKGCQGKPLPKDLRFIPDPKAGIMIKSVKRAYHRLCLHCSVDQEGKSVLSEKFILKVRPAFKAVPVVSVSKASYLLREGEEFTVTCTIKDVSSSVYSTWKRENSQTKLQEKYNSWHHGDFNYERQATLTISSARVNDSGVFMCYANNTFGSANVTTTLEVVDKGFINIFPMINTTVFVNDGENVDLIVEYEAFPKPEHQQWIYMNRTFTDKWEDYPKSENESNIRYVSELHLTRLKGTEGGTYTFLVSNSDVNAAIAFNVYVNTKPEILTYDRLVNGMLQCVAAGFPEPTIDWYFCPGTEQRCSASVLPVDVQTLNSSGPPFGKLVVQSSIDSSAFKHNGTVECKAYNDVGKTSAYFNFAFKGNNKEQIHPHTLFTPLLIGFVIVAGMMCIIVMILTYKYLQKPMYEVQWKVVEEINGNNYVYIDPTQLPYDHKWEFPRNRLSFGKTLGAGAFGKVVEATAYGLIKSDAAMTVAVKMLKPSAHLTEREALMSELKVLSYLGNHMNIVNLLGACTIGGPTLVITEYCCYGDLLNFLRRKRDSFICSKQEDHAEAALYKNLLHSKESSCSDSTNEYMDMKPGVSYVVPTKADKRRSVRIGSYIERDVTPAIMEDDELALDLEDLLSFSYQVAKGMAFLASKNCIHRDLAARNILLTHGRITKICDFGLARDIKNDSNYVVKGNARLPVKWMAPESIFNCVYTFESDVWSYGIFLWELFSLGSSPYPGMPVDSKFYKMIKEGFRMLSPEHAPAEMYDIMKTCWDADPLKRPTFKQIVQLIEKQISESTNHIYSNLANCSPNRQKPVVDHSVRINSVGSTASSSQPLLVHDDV

[13] = target: c-MET (Homo sapiens, UniProt P08581); experiment: Kinase panel screening; details: single dose of 10 μM, read-out: % inhibition rate
[14] = target: FLT3 (Y591_V592 ins VDFREYEYD) (Homo sapiens, UniProt P36888, INS591VDFREYEYD); experiment: Inhibitory activity against FLT3 mutants; details: insertion of 9 amino acids
Excerpt: (§1) Subsequently, the inhibitory activity of Compound 7d against other different FLT3 mutants was additionally investigated and is shown in Table 2. […] Further, Compound 7d was also strong against FLT3 mutations located in the TKD.

[15] = target: FLT3 (F594_R595 ins EY) (Homo sapiens, UniProt P36888, INS594EY); experiment: Inhibitory activity against FLT3 mutants; details: insertion of 2 amino acids
Excerpt: as §1

[16] = target: FLT3 (F594_R595 ins R) (Homo sapiens, UniProt P36888, INS594R); experiment: Inhibitory activity against FLT3 mutants; details: insertion of 1 amino acid
Excerpt: as §1

[17] = target: FLT3 (D835Y) (Homo sapiens, UniProt P36888, D835Y); experiment: Inhibitory activity against FLT3 mutants
Excerpt: as §1

Cc1oncc1C(=O)Nc1ccc2cnc(-c3cc(N4CCN(C)CC4)cc(C(F)(F)F)c3)nc2c1 [Compound 7d, 5-methyl-N-(2-(3-(4-methylpiperazin-1-yl)-5-(trifluoromethyl)phenyl)quinazolin-7-yl)isoxazole-4-carboxamide]
inhibition at 10 µM [1]: 17.5%
inhibition at 10 µM [2]: 5.23%
inhibition at 10 µM [3]: 0.8%
inhibition at 10 µM [4]: 3.01%
inhibition at 10 µM [5]: 19%
inhibition at 10 µM [6]: 0%
inhibition at 10 µM [7]: 21.2%
inhibition at 10 µM [8]: 8.06%
inhibition at 10 µM [9]: 2.5%
pIC50 ([10]; read-out: FLT3 IC50): > 5.52
pIC50 ([10]; read-out: IC50 against FLT3): 6.97
% inhibition rate [11]: 95.2%
% inhibition rate [12]: did not exhibit inhibitory activity
inhibition at 10 µM ([12]; read-out: % inhibition rate): 0%
inhibition at 10 µM [13]: 13.2%
pIC50 [14]: 6.14
pIC50 [15]: 6.31
pIC50 [16]: 6.28
pIC50 [17]: 6.64
